These results are taken from patent US6670339B1, “Use of sulfated oligosaccharides in lowering blood triglyceride levels” (The Australian National University, priority 1997, dated 2003).

The subject of test [1] is blood triglyceride levels. Nature of the test: Blood triglyceride levels in Fisher rats after 7 days of twice daily s.c. injection. The settings on record: female Fisher rats, blood on day 8, control 1.43±0.13. The class given is in vivo. The protocol:
1. Nine 10 week old female Fisher rats were treated with the sulfated mannopentaose phosphate or saline over a 7 day period as follows. On […] the rats were weighed and placed into three groups of three rats based on weight. On every subsequent morning their weights were recorded. Each morning beginning on day 1 at approximately 8.00 AM and evening at approximately 8.00 PM the rats were injected in the following manner. The control group received sterile normal saline solution 100 μl s.c. One treatment group received the sulfated mannopentaose phosphate at a dose of 10 mg/kg s.c. in an injection volume of 100 μl of sterile saline solution. Thus, each rat in this group received a total daily dose of 20 mg/kg. Animals in the second treatment group received the sulfated mannopentaose phosphate at a dose of 50 mg/kg s.c. in an injection volume of 100 μl of sterile saline solution. Thus, each rat in this group received a total daily dose of 100 mg/kg. This injection routine was repeated for a total of 7 days.
On the morning of day 8 of the experiment, the rats were anaesthetised and blood was taken for triglyceride analysis. Triglyceride levels were determined using a commercially available assay kit (Sigma, Triglyceride—GPO-Trinder). […]

Test [2] has as its system blood triglyceride levels. Nature of the test: Blood triglyceride levels in male and female Lewis rats after 7 days of twice daily s.c. injection. The class given is in vivo. The protocol:
2. […] Thus, on day 0 the rats were weighed and placed into three groups of the same sex, containing three rats each based on weight. On every subsequent morning their weights were recorded. Each morning beginning on day 1 at approximately 8.00 AM and each evening at approximately 8.00 PM the rats were injected in the following manner. The control groups received sterile normal saline solution 100 μl s.c. The first treatment groups of male and female rats received the sulfated mannopentaose phosphate, at a dose of 10 mg/kg s.c. in 100 μl of sterile saline solution (total daily dose 20 mg/kg). The second treatment groups of male and female rats received the sulfated mannopentaose phosphate at a dose of 50 mg/kg s.c. (total daily dose 100 mg/kg). This injection routine was repeated for a total of 7 days.
On morning of day 8 of the experiment, the rats were anaesthetised and blood was taken for triglyceride analysis. Triglyceride levels were determined using a commercially available assay kit (Sigma, Triglyceride—GPO-Tinder). […] Thus, blood triglyceride levels in the male control group averaged 1.7±0.21 mmol/L, in the […] male treatment group averaged 0.9±0.2 mmol/L and in the 100 mg/kg/day male treatment group averaged 0.3±0.0 mmol/L. Blood triglyceride levels in the female control group averaged 1.13±0.19 mmol/L, and in the 20 mg/kg/day female treatment group averaged 0.5±0.0 mmol/L and in the 100 mg/kg/day female treatment group averaged 0.17±0.03 mmol/L.

Test [3] has as its system serum triglyceride levels. Nature of the test: Serum triglyceride lowering by glycosaminoglycans and sulfated oligosaccharides in mice. Type of test: in vivo, CBA/h female mice. The settings on record: 50 mg/kg s.c., 2 hours after injection. The protocol: FIG. 3. Ability of different glycosaminoglycans and sulfated oligosaccharides to lower serum triglyceride levels in CBA mice. Compounds were injected s.c. at a dose of 50 mg/kg, blood samples taken 2 hours later and assayed for triglyceride content. Each histogram is the mean±SEM (n=3) for each treatment.
Mice (CBA/h female mice 8-10 weeks old) were injected s.c. with a range of glycosaminoglycans and sulfated oligosaccharides at a dose of 50 mg/kg and 2 hours later mice were anaesthetised, blood was collected via cardiac puncture and allowed to clot and serum triglyceride levels measured using a commercially available kit (Sigma, Triglyceride—GPO-Trinder). […] The only other compound with some activity was suramin, a sulfonated compound which has previously been used as an angiogenesis and heparanase inhibitor.

The subject of test [4] is blood triglyceride levels. Nature of the test: Blood triglyceride levels in mice after alternate daily s.c. injection. The class given is in vivo, CBA/h female mice. Conditions: 50 mg/kg s.c. on alternate days, 4 injections, 24 hours after last injection; control 1.11±0.1. The protocol: Thus, 10 CBA/h female mice 8-10 weeks old were weighed and divided into two groups of 5 mice each based on weight. Mice in the control group were injected with sterile normal saline solution 100 μl s.c. on alternate days for a total of 4 injections. Mice in the treatment group were injected with the sulfated mannopentaose phosphate at a dose of 50 mg/kg s.c. on alternate days for a total of 4 injections. Twenty-four hours following the last injection, blood (50 μl) was collected from the tail veins of each animal and assayed for triglyceride levels (Sigma, Triglyceride—GPO-Trinder). Blood triglyceride levels in the control group averaged 1.11±0.1 mM and blood triglyceride levels in the treatment group averaged 0.64±0.04 mM.

Regarding “sulfated mannopentaose phosphate [PI-88 (15 SO4/molecule)]”, the blood triglyceride levels in test [1] (20 mg/kg/day s.c. (10 mg/kg twice daily)) was 0.3 ± 0.12 mmol/L; in test [1] (100 mg/kg/day s.c. (50 mg/kg twice daily)) it was 0.1 ± 0.0 mmol/L; in test [2] (female Lewis rats, 20 mg/kg/day s.c., blood on day 8, control 1.13±0.19) it was 0.5 ± 0.0 mmol/L; in test [2] (female Lewis rats, 100 mg/kg/day s.c., blood on day 8, control 1.13±0.19), 0.17 ± 0.03 mmol/L; in test [2] (male Lewis rats, 100 mg/kg/day s.c., blood on day 8, control 1.7±0.21), 0.3 ± 0.0 mmol/L; in test [2] (male Lewis rats, 'mg/kg/day' group (lower dose), s.c. twice daily, blood on day 8, control 1.7±0.21), 0.9 ± 0.2 mmol/L. In test [4], the blood triglyceride levels is 0.64 ± 0.04 mM. The “effect on serum triglyceride levels, in words” value in test [3] was “lowered serum triglyceride levels”.
